Measured values taken from PMC7587356, “High-Throughput Screening for Inhibitors of the SARS-CoV-2 Protease Using a FRET-Biosensor” (Molecules, 2020).
Where a name gives a salt, the structure may show the parent alone. Read-outs that look alike come from different tables or passages of the source.

Target: SARS-CoV-2 3CLpro (Severe acute respiratory syndrome coronavirus 2, UniProt P0DTD1)
Test: biochemical
Format: biochemical
Parameters: Replicate_1 / Replicate_2 / mean / mean (LOPAC_screen_w_protease): unit not given here
Conditions: for inhibition at 5 µM: 4 h; for mean (LOPAC screen with protease) / Replicate_1 (LOPAC screen with protease) / Replicate_2 (LOPAC screen with protease): primary screen at 5 µM
[1] = sheet LOPAC_screen_w_protease, primary screen with protease, mean of two replicates
[2] = sheet LOPAC_screen_w_protease, primary screen with protease, replicate 1
[3] = sheet LOPAC_screen_w_protease, primary screen with protease, replicate 2
[4] = sheet LOPAC_screen_w_protease, primary screen with protease, 5 µM, mean of two replicates
[5] = sheet LOPAC_screen_w_protease, primary screen with protease, 5 µM, replicate 1
[6] = sheet LOPAC_screen_w_protease, primary screen with protease, 5 µM, replicate 2
[7] = sheet LOPAC_screen_w_protease, primary screen with protease, compound at 5 µM, mean of two replicates
[8] = sheet LOPAC_screen_w_protease, primary screen with protease, compound at 5 µM, replicate 1
[9] = sheet LOPAC_screen_w_protease, primary screen with protease, compound at 5 µM, replicate 2
[10] = LOPAC1280 primary screen with protease, 5 µM compound, replicate 1, read-out: Replicate_1 (LOPAC_screen_w_protease)
[11] = LOPAC1280 primary screen with protease, 5 µM compound, replicate 2, read-out: Replicate_2 (LOPAC_screen_w_protease)
[12] = LOPAC1280 primary screen with protease, 5 µM compound, mean of the two replicates
[13] = LOPAC1280 primary screen with protease, 5 µM compound, mean of two replicates
[14] = LOPAC1280 primary screen with protease, 5 µM compound, replicate 1
[15] = LOPAC1280 primary screen with protease, 5 µM compound, replicate 2
[16] = sheet LOPAC_screen_w_protease, primary screen of LOPAC1280 at 5 µM with protease, mean of the two replicates
[17] = sheet LOPAC_screen_w_protease, primary screen of LOPAC1280 at 5 µM with protease, replicate 1
[18] = sheet LOPAC_screen_w_protease, primary screen of LOPAC1280 at 5 µM with protease, replicate 2
[19] = sheet LOPAC_screen_w_protease, mean of two replicates
[20] = sheet LOPAC_screen_w_protease, replicate 1
[21] = sheet LOPAC_screen_w_protease, replicate 2
[22] = sheet LOPAC_screen_w_protease, LOPAC1280 primary screen at 5 µM, with protease, mean of the two replicates
[23] = sheet LOPAC_screen_w_protease, LOPAC1280 primary screen at 5 µM, with protease, replicate 1
[24] = sheet LOPAC_screen_w_protease, LOPAC1280 primary screen at 5 µM, with protease, replicate 2

Work on O=C(c1ccc(F)cc1)C1CCN(CCn2c(=O)[nH]c3ccccc3c2=O)CC1 [Ketanserin tartrate] yielded an inhibition at 5 µM (sheet LOPAC_screen_w_protease, LOPAC1280 primary screen at 5 µM, with protease, mean of two replicates, read-out: mean) of -1.02%, an inhibition at 5 µM (sheet LOPAC_screen_w_protease, LOPAC1280 primary screen at 5 µM, with protease, replicate 1, read-out: Replicate_1) of 1.01% and an inhibition at 5 µM (sheet LOPAC_screen_w_protease, LOPAC1280 primary screen at 5 µM, with protease, replicate 2, read-out: Replicate_2) of -3.04%.
Cc1cc(N)c2ccccc2[n+]1CCCCCCCCCC[n+]1c(C)cc(N)c2ccccc21 [Dequalinium dichloride] showed an inhibition at 5 µM (read-out: Replicate_1) of 2.94%, an inhibition at 5 µM (read-out: Replicate_2) of 1.41% and an inhibition at 5 µM (read-out: mean) of 2.17%.
In the case of Cl.NC1CCN(c2cccc(Cl)n2)CC1 [SR 57227A], the mean (sheet LOPAC_screen_w_protease, LOPAC1280 at 5 µM, mean of two replicates) was 1.074, the Replicate_1 (sheet LOPAC_screen_w_protease, LOPAC1280 at 5 µM, replicate 1) was 1.181 and the Replicate_2 (sheet LOPAC_screen_w_protease, LOPAC1280 at 5 µM, replicate 2) was 0.9673.
C[N+]1(C)CCC(OC(=O)C(c2ccccc2)c2ccccc2)CC1.[I-] [4-DAMP methiodide] showed a mean [1] of 2.136, a Replicate_1 [2] of 2.4758 and a Replicate_2 [3] of 1.796.
c1ccc2c(c1)CCCC2C1=NCCN1 (stereo not drawn) [Tetrahydrozoline hydrochloride] was tested, and the inhibition at 5 µM (sheet LOPAC_screen_w_protease, primary screen with protease, mean of two replicates, read-out: mean) was 2.26%, the inhibition at 5 µM (sheet LOPAC_screen_w_protease, primary screen with protease, replicate 1, read-out: Replicate_1) was 1.87% and the inhibition at 5 µM (sheet LOPAC_screen_w_protease, primary screen with protease, replicate 2, read-out: Replicate_2) was 2.65%.
For Cl.NCCNC(=O)c1ccc(Cl)cc1 [Ro 16-6491 hydrochloride], the mean [4] was -0.0598, the Replicate_1 [5] was 0.2844 and the Replicate_2 [6] was -0.404.
With CN(C)CCC(c1ccc(Br)cc1)c1ccccn1.O=C(O)/C=C\C(=O)O (racemic) [(±)-Brompheniramine maleate] the mean [7] was 2.6339, the Replicate_1 [8] was 2.5605 and the Replicate_2 [9] was 2.707.
Compound COc1ccc2c(c1)c(CC(=O)O)c(C)n2Cc1ccc(F)cc1 has a mean [1] of 2.348, a Replicate_1 [2] of 3.38 and a Replicate_2 [3] of 1.3165.
C#CCOC(=O)C1=CCCN(C)C1 [Arecaidine propargyl ester hydrobromide] was tested, and the inhibition at 5 µM (sheet LOPAC_screen_w_protease, LOPAC1280 at 5 µM, mean of two replicates, read-out: mean) was 1.23%, the inhibition at 5 µM (sheet LOPAC_screen_w_protease, LOPAC1280 at 5 µM, replicate 1, read-out: Replicate_1) was 0.854% and the inhibition at 5 µM (sheet LOPAC_screen_w_protease, LOPAC1280 at 5 µM, replicate 2, read-out: Replicate_2) was 1.62%.
COC[C@H]1OC(=O)c2coc3c2[C@@]1(C)C1=C(C3=O)[C@@H]2CCC(=O)[C@@]2(C)C[C@H]1OC(C)=O [Wortmannin from Penicillium funiculosum] gave a mean [1] of 2.471, a Replicate_1 [2] of 2.1754 and a Replicate_2 [3] of 2.767.
With O=C(O)C1CCNCC1 [Isonipecotic acid] the inhibition at 5 µM [10] was 4.55%, the inhibition at 5 µM [11] was -0.611% and the “mean (LOPAC_screen_w_protease)” value [12] was 1.97.
In the case of Cl.N[C@@H](CCC(=O)O)C(=O)O [L-Glutamic acid hydrochloride], the “mean (LOPAC_screen_w_protease)” value [13] was 1.56, the “Replicate_1 (LOPAC_screen_w_protease)” value [14] was 1.529 and the “Replicate_2 (LOPAC_screen_w_protease)” value [15] was 1.59.
With O=c1[nH]c2ccccc2c2ccccc12 [6(5H)-Phenanthridinone] the mean [1] was 2.579, the Replicate_1 [2] was 3.064 and the Replicate_2 [3] was 2.0946.
For Cl.FC(F)(F)c1cc(CO[C@H]2CCCN[C@H]2c2ccccc2)cc(C(F)(F)F)c1 [L-733,060 hydrochloride], the mean [16] was 3.689, the Replicate_1 [17] was 3.241 and the Replicate_2 [18] was 4.136.
Cl.NC[C@@H]1O[C@H](C23CC4CC(CC(C4)C2)C3)Cc2c1ccc(O)c2O [A-77636 hydrochloride] was tested, and the “mean (LOPAC screen with protease)” value [19] was 61.6634, the “Replicate_1 (LOPAC screen with protease)” value [20] was 62.3885 and the “Replicate_2 (LOPAC screen with protease)” value [21] was 60.9383.
With C[N+](C)(C)CCCCCC[N+](C)(C)C.[Cl-].[Cl-] [Hexamethonium dichloride] the “mean (LOPAC_screen_w_protease)” value [12] was 1.868, the “Replicate_1 (LOPAC_screen_w_protease)” value [14] was 3.928 and the “Replicate_2 (LOPAC_screen_w_protease)” value [15] was -0.1911.
In the case of O=C(O)c1ccccc1Nc1cccc(OCc2ccc3ccccc3n2)c1 [SR 2640], the inhibition at 5 µM [10] was 1.95%, the inhibition at 5 µM [11] was 1.04% and the “mean (LOPAC_screen_w_protease)” value [13] was 1.4964.
For Nc1ncnc2c1c(-c1ccc(Oc3ccccc3)cc1)cn2C1CCCC1, the mean [22] was 0.6123, the Replicate_1 [23] was 0.3054 and the Replicate_2 [24] was 0.9192.
In the case of CCCCCCC(C(C)O)n1cnc2c(N)ncnc21.Cl (stereo not drawn), the mean [16] was 3.427, the Replicate_1 [17] was 4.751 and the Replicate_2 [18] was 2.103.
Compound COc1cc(/C=C(\C#N)C(=O)c2ccc(O)c(O)c2)cc(I)c1O [I-OMe-Tyrphostin AG 538] has a mean [7] of 2.606, a Replicate_1 [8] of 2.231 and a Replicate_2 [9] of 2.982.
CC(Cc1ccc(O)c(O)c1)C(C)Cc1ccc(O)c(O)c1 (stereo not drawn) was tested, and the “mean (LOPAC screen with protease)” value [19] was 97.9088, the “Replicate_1 (LOPAC screen with protease)” value [20] was 97.7665 and the “Replicate_2 (LOPAC screen with protease)” value [21] was 98.0511.
CS(=O)(=O)O.Cn1cc(C(F)(F)F)nc1-c1ccc(OCC(O)CNCCOc2ccc(O)c(C(N)=O)c2)cc1 (stereo not drawn) [CGP 20712A methanesulfonate] was tested, and the mean [22] was 0.4402, the Replicate_1 [23] was 1.402 and the Replicate_2 [24] was -0.5212.
For C=CCn1c(=O)c2c(nc(-c3ccc(S(=O)(=O)O)cc3)n2C)n(C)c1=O, the “mean (LOPAC_screen_w_protease)” value [13] was 1.718, the “Replicate_1 (LOPAC_screen_w_protease)” value [14] was 2.434 and the “Replicate_2 (LOPAC_screen_w_protease)” value [15] was 1.002.
Work on Cl.Cl.NCCNS(=O)(=O)c1cccc2cnccc12 [H-9 dihydrochloride] yielded a mean [4] of 0.3892, a Replicate_1 [5] of 0.9278 and a Replicate_2 [6] of -0.1494.
With O=C(Nc1ccc([N+](=O)[O-])cc1Cl)c1cc(Cl)ccc1O [Niclosamide] the inhibition at 5 µM (read-out: Replicate_1) was 5.53%, the inhibition at 5 µM (read-out: Replicate_2) was 4% and the inhibition at 5 µM (read-out: mean) was 4.76%.
Work on O=C(O)c1cc2cc(F)ccc2[nH]1 [5-Fluoroindole-2-carboxylic acid] yielded an inhibition at 5 µM (sheet LOPAC_screen_w_protease, primary screen with protease, 5 µM, mean of two replicates, read-out: mean) of -0.381%, an inhibition at 5 µM (sheet LOPAC_screen_w_protease, primary screen with protease, 5 µM, replicate 1, read-out: Replicate_1) of 0.54% and an inhibition at 5 µM (sheet LOPAC_screen_w_protease, primary screen with protease, 5 µM, replicate 2, read-out: Replicate_2) of -1.3%.
CNC(=O)[C@H]1O[C@@H](n2cnc3c(NCc4ccc(N)cc4)ncnc32)[C@H](O)[C@@H]1O [AB-MECA] gave a mean [7] of 2.5809, a Replicate_1 [8] of 2.895 and a Replicate_2 [9] of 2.266.
With CCCCCCCCCCCCCCCCCCNC(=O)OCC(COP(=O)([O-])OCC[n+]1ccsc1)OC (stereo not drawn) [CV-3988] the “mean (LOPAC_screen_w_protease)” value [13] was 1.326, the “Replicate_1 (LOPAC_screen_w_protease)” value [14] was -0.07699 and the “Replicate_2 (LOPAC_screen_w_protease)” value [15] was 2.73.
Compound CN1C2CCC1CC(OC(=O)c1c[nH]c3ccccc13)C2.Cl (stereo not drawn) has a mean [22] of 0.5358, a Replicate_1 [23] of 1.053 and a Replicate_2 [24] of 0.01899.
Work on O=C(c1cc(O)c(O)c([N+](=O)[O-])c1)c1ccccc1F [Ro 41-0960] yielded a mean (sheet LOPAC_screen_w_protease, LOPAC1280 primary screen at 5 µM, with protease, mean of two replicates) of -0.9763, a Replicate_1 [23] of -1.184 and a Replicate_2 [24] of -0.7687.
For O=c1n(CCCN2CCN(c3cccc(Cl)c3)CC2)nc2ccccn12 [Trazodone hydrochloride], the inhibition at 5 µM (sheet LOPAC_screen_w_protease, primary screen with protease, compound at 5 µM, mean of two replicates, read-out: mean) was 2.86%, the inhibition at 5 µM (sheet LOPAC_screen_w_protease, primary screen with protease, compound at 5 µM, replicate 1, read-out: Replicate_1) was 3.03% and the inhibition at 5 µM (sheet LOPAC_screen_w_protease, primary screen with protease, compound at 5 µM, replicate 2, read-out: Replicate_2) was 2.69%.
c1ccc(C2CN3CCSC3=N2)cc1 (stereo not drawn) [Tetramisole hydrochloride] showed an inhibition at 5 µM (read-out: Replicate_1) of 1.43%, an inhibition at 5 µM (read-out: Replicate_2) of -2.01% and an inhibition at 5 µM (read-out: mean) of -0.287%.
Compound CN1C[C@H](CNC(=O)OCc2ccccc2)C[C@@H]2c3cccc4c3c(cn4C)C[C@H]21 [Metergoline] has an inhibition at 5 µM (sheet LOPAC_screen_w_protease, primary screen of LOPAC1280 at 5 µM with protease, mean of the two replicates, read-out: mean) of 4.08%, an inhibition at 5 µM (sheet LOPAC_screen_w_protease, primary screen of LOPAC1280 at 5 µM with protease, replicate 1, read-out: Replicate_1) of 2.56% and an inhibition at 5 µM (sheet LOPAC_screen_w_protease, primary screen of LOPAC1280 at 5 µM with protease, replicate 2, read-out: Replicate_2) of 5.6%.
In the case of O=[N+]([O-])c1ccc(CSc2ncnc3c2ncn3[C@@H]2O[C@H](CO)[C@@H](O)[C@H]2O)cc1 [S-(4-Nitrobenzyl)-6-thioinosine], the mean (sheet LOPAC_screen_w_protease, LOPAC1280 primary screen with protease, 5 µM compound, mean of the two replicates) was 4.84, the Replicate_1 (sheet LOPAC_screen_w_protease, LOPAC1280 primary screen with protease, 5 µM compound, replicate 1) was 5.452 and the Replicate_2 (sheet LOPAC_screen_w_protease, LOPAC1280 primary screen with protease, 5 µM compound, replicate 2) was 4.228.
